Here are results for six compounds from patent publication US11851431B2, “Tricyclic Janus kinase 1 inhibitors, and compositions and methods thereof” (LYNK PHARMACEUTICALS CO. LTD., priority 2018, dated 2023).

For series [1], the system named is BaF3-TEL-JAK2. Nature of the series: Anti-proliferative assay, BaF3-TEL-JAK2 cells. The conditions noted are these: 72 h, Cell-Titer Glo. Type of series: cell-based. The procedure: (§1) Dimerization domain of Tel protein fused with JAK kinase domain was permanently transduced into BaF3 cells, whose proliferation is dependent on JAK activity in the absence of IL-3 induction. These engineered BaF3-Tel-JAK cells were used to monitor JAK inhibitory activities of the compounds in the cellular.
(§2) BaF3-Tel-JAK cells were cultured in RPMI-1640 (Corning) containing 10% fetal bovine serum. Cells were seeded at 2000/well of white flat bottom 96-well plates. The well containing medium only was used as background control. After 24h growth, cells were treated with compounds. The test compounds were dissolved in DMSO to a stock concentration of 10 mM. 3-fold serially diluted compounds for 9 concentrations with top concentration of 10 μM was added into the each well. The final DMSO concentration was 0.2%. The cells continued to grow at 37° C. in 5% CO2 for 72 h after compound treatment. The viability was measured by cellular ATP determination using the Cell-Titer Glo luciferase reagent (Promega). The Luminescence value was recorded by a multi-label reader Envision (PerkinElmer). Values were transformed to percent inhibition using the following formula. % Inhibition=(Readoutmax−Readoutsample)/(Readoutmax−Readoutmin)*100
(§3) The well without compound but with equivalent DMSO was defined as Readout max
(§4) The well with only medium and equivalent DMSO was defined as Readout min
(§5) The dose-response (percent inhibition) curve was plotted and GI50 values (the concentration that causes 50% growth inhibition) were determined by GraphPad software.

Series [2] can be described thus: Human liver microsome stability study. Type of series: in vitro ADME. The settings on record: liver microsomes, pH 7.4, 0.5 mg/mL microsomal protein, 1 μM test article; for microsomal CLint at 1 μM: read-out: HLM Clint; for half-life at 1 μM: read-out: HLM T½. The procedure:
Commercially available human liver microsome (vendor: Corning) were used for study the Phase I stability of test articles.
Microsomes were pre-incubated with test compound or control compounds for 10 min at 37° C. in 100 mM potassium phosphate buffer, pH 7.4, 3.3 mM MgCl2. The reaction was initiated by addition of 80 μL of the NADPH regenerating system to 320 μL of each incubation mixture per time point. The final incubation condition was composed of 0.5 mg/mL microsomal protein, 1 μM test article/positive control, 1.3 mM NADP, 3.3 mM glucose-6-phosphate, and 0.6 U/mL glucose-6-phosphate dehydrogenase. The 0-minute samples were prepared by addition of an 80 μL aliquot of each incubation mixture to 400 μL quench reagent to precipitate proteins. And then a 20 μL aliquot of the NADPH regenerating system was added. At 10, 30, and 90 minutes, the reaction will be stopped by the addition of cold acetonitrile solution containing tolbutamide and propanolol served as internal standard. The samples taken at all time points were centrifuged at 4000×g for 15 minutes. 80 μL of supernatant are taken into 96-well assay plates pre-added with 160 μL ultrapure water, and then analyzed by LC/MS/MS (Shimadzu LC30AD & API4000/API5000)).
Concentrations of test articles, control compounds in the samples were determined by using LC/MS/MS) method. Plotting of the chromatograms and peak area integrations are carried out by Analyst (AB Sciex).
In the determination of the in vitro elimination constant, ke, of the control compounds, the analyte/internal standard peak area ratios will be converted to percentage remaining (% Remaining) with the following equation:
The CLint of microsomes was calculated using the formula: CLint (mic)=0.693/T1/2/mg microsome protein per mL.

The nature of series [3]: Rat pharmacokinetic study. It is filed as in vivo, Sprague-Dawley rats. The settings on record: for half-life: read-out: t½ (converted); for Pharmacokinetic profile in rats: conclusion in words. The procedure: Pharmacokinetic profile of test articles were evaluated in fasted Sprague-Dawley rats. Typically, Rats were dosed with 1 mg/kg and 2 mg/kg by intravenous injection and oral gavage, respectively. After dosing, blood samples were collected at each time point. For IV injection group, time points were set at 5, 15, 30 min, and then 1, 2, 4, 8 and 24 hours after dosing. For oral gavage group, time points were set at 15, 30 min, and then 1, 2, 4, 8, and 24 hours. Blood was collected into appropriately labeled tubes containing K2EDTA as the anticoagulant. Plasma was obtained within 1 hours of blood collection by centrifugation at 8000×g and 4° C. for 6 minutes, and then stored at −20° C. until analyzed by LC/MS/MS for quantification.
PK parameter values, including, but not necessarily limited to, the maximum plasma concentrations (Cmax), the time to reach the maximum concentrations (Tmax), and the area under the plasma concentration vs. time curve (AUC) from time zero to 24-hour (AUC0-24h) were determined using WinNonlin program.

Series [4] addresses T1, TYK2 (Homo sapiens, UniProt P29597).
T1 construct: purchased Carna Biosciences
Kind of series: JAK biochemical microfluidic assay (Caliper EZ Reader), TYK2. The conditions noted are these: 1 mM ATP; head prints (2.5 nM). The procedure:
(§6) JAK activity was determined in the reaction buffer 50 mM HEPES, 0.01% Brij35, 10 mM MgCl2, 2 mM DTT by a microfluidic assay. The phosphorylation of a FAM labeled peptide substrate was monitored in the Caliper EZ Reader II (Perkin Elmer). The assay condition for each batch of enzyme (Carna Biosciences) was optimized to obtain 10% conversion rate of peptide substrate.
(§7) The test compounds were dissolved in DMSO to a stock concentration of 10 mM. Three-fold serially diluted compounds with top concentration of 5 μM were pre-incubated with JAK1, JAK2 or TYK2 for 10 min at ambient temperature. The final DMSO concentration of assay mixture was 1%. […] The reaction was stopped by adding 50 mM EDTA.
(§8) The percent inhibition was calculated by the following formula. % Inhibition=(Conversionmax−Conversionsample)/(Conversionmax−Conversionmin)*100 Conversionmax means the conversion rate in the positive well without addition of compound • […] means the conversion rate in the well without addition of enzyme • Conversionsample means the conversion rate of test compounds
(§9) The dose-response (percent inhibition) curve was plotted and IC50 values were determined by GraphPad software.

The target of series [5] is T2, JAK1 (Homo sapiens, UniProt P23458).
T2 construct: purchased Carna Biosciences
Nature of the series: JAK biochemical microfluidic assay (Caliper EZ Reader), JAK1. The conditions noted are these: 1 mM ATP; head prints (5 nM). The procedure: as §6, §7, §8, §9

Series [6] deals with T3, JAK2 (Homo sapiens, UniProt O60674).
T3 construct: purchased Carna Biosciences
Kind of series: JAK biochemical microfluidic assay (Caliper EZ Reader), JAK2. The conditions noted are these: 1 mM ATP; head prints (0.25 nM). The procedure:
as §6, §7, §8, §9

Series [7] concerns BaF3-TEL-JAK1. Nature of the series: Anti-proliferative assay, BaF3-TEL-JAK1 cells. It is filed as cell-based. The settings on record: 72 h, Cell-Titer Glo. The procedure:
as §1, §2, §3, §4, §5

The mark [8] stands for this setting: Sprague-Dawley, plasma, 1 mg/kg, Rat iv @1 mpk, 0.2 mg/mL in 5% DMSO + 15% Solutol HS 15 + 80% Saline.
[9] abbreviates: Sprague-Dawley, plasma, 2 mg/kg, Rat po @2 mpk, 0.2 mg/mL in 5% DMSO + 15% Solutol HS 15 + 80% Saline.
Where [10] appears, read: Sprague-Dawley, plasma, 1 mg/kg, Rat iv @1 mpk, 0.2 mg/mL in 4% DMSO + 15% Solutol HS 15 + 81% Saline.

The structures appear in SMILES notation. Like-named read-outs stand apart in the source and are kept apart here.

T2 sequence (P23458 whole entry): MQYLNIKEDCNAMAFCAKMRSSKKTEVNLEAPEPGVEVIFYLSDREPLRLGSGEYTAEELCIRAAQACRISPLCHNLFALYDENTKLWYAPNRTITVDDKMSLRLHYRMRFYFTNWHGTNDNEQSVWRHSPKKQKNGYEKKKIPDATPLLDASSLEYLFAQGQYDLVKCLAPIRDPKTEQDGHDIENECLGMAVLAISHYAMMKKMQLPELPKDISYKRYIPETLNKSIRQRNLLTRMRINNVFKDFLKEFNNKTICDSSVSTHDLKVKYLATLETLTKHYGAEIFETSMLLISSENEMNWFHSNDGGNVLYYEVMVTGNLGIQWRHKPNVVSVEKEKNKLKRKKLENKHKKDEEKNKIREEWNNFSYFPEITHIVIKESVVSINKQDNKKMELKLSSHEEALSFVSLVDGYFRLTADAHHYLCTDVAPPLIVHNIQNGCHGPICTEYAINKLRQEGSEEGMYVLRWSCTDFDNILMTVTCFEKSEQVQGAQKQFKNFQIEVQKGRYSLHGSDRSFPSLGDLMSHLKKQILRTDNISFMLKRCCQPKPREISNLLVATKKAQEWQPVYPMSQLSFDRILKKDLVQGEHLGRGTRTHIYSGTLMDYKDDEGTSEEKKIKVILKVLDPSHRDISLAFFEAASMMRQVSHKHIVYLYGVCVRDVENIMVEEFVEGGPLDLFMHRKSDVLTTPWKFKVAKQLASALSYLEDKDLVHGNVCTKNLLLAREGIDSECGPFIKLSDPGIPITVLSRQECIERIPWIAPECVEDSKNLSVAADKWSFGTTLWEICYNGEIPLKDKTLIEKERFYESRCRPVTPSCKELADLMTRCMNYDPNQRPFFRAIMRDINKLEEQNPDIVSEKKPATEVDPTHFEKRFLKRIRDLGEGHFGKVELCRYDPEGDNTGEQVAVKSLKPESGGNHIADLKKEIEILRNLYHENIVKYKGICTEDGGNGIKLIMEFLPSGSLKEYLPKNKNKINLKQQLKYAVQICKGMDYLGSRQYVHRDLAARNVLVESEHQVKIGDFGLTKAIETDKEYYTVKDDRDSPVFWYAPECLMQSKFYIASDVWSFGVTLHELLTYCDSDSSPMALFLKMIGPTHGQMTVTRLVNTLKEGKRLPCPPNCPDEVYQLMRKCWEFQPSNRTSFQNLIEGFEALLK
T1 sequence (P29597 whole entry): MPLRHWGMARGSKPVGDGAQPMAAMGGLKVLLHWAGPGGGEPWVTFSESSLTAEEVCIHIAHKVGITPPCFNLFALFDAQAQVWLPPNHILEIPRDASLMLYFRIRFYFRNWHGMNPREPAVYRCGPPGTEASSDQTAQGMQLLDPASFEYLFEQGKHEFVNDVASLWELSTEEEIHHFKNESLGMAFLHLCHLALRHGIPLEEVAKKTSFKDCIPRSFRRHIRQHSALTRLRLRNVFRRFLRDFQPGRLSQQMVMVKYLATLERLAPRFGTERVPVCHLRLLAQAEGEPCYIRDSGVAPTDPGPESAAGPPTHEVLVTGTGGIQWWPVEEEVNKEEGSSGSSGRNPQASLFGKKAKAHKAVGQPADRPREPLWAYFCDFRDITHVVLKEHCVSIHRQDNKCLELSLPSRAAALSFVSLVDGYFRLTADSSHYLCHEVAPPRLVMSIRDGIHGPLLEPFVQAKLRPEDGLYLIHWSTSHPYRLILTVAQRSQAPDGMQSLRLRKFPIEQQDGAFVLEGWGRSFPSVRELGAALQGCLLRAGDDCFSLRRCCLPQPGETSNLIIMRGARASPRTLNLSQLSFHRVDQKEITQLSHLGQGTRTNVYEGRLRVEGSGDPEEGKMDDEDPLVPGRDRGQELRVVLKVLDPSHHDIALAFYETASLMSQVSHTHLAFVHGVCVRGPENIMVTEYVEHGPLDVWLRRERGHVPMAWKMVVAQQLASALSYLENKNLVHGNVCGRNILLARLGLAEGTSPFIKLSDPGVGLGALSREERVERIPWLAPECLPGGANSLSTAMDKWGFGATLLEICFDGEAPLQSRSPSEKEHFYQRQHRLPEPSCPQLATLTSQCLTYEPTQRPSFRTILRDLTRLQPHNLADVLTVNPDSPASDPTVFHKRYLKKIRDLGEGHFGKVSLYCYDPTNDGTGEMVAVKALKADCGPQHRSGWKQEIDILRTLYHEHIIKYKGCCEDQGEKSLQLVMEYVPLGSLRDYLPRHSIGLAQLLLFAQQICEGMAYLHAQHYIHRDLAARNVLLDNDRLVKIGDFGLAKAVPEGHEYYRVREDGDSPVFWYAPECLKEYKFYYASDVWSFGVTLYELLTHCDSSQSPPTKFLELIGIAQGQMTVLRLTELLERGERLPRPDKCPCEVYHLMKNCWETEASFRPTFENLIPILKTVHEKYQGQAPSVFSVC
T3 sequence (O60674 whole entry): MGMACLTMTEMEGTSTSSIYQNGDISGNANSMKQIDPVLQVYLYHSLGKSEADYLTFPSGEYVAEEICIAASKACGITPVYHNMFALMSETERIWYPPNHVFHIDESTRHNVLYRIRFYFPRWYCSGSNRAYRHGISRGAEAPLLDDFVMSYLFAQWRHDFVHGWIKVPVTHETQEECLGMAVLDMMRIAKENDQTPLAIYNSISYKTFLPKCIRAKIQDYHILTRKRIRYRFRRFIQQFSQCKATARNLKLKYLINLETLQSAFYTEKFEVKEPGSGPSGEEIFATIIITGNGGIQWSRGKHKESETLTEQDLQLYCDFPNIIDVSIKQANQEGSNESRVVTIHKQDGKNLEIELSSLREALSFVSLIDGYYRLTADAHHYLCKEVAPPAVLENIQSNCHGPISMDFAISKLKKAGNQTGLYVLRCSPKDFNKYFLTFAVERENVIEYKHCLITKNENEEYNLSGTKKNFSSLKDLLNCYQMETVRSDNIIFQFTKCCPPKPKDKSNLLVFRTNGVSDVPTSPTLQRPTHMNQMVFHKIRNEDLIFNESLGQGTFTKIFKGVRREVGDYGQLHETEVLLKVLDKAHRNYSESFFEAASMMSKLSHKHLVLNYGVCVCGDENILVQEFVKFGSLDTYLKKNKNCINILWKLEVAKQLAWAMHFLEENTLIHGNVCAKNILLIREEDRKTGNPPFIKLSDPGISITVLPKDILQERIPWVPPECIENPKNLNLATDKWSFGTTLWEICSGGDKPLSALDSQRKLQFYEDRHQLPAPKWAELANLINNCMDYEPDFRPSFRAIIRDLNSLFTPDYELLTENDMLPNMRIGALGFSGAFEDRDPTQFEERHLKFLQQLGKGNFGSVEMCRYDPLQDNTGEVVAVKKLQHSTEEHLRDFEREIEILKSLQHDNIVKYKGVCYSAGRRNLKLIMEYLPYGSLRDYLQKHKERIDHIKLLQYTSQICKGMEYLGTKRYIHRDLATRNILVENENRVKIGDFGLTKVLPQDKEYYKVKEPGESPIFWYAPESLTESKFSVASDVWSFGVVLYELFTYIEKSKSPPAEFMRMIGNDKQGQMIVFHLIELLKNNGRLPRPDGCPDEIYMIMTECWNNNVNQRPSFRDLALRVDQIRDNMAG

`CCCS(=O)(=O)NC12CC(n3cnc4cnc5[nH]ccc5c43)(C1)C2` [Example 1, N-(3-(Imidazo[4,5-d]pyrrolo[2,3-b]pyridin-1(6H)-yl)bicyclo[1.1.1]pentan-1-yl)propane-1-sulfonamide]: in series [1], growth was halved (GI50) at 354 nM. In series [2], the microsomal CLint at 1 μM was 4.1 µL/min/mg and the half-life at 1 μM came to 5.69 h. The F in series [3] (Rat po @2 mpk, 0.2 mg/mL in 5% DMSO + 15% Solutol HS 15 + 80% Saline) came to 21.90%. For the same compound, in series [3] (setting [8]), the AUC came to 458 ng·h/mL, the Vd was 1.42 L/kg, the clearance turned out to be 36.2 mL/min/kg and the half-life was 0.46 h. Besides, in series [3] (setting [9]), the AUC came to 190 ng·h/mL, the highest concentration (Cmax) was determined as 92.8 ng/mL and the half-life is 2.06 h. Further, the “Pharmacokinetic profile in rats” value in series [3] is reported as “good Pharmacokinetic profile”. In series [4], this compound yielded an IC50 of 119 nM. Besides, in series [5], the IC50 is 5.95 nM. The compound also returned a half-inhibitory concentration (IC50) in series [6] of 141 nM. The compound further yielded a GI50 in series [7] of 19.6 nM.
Consider `N#CC1CN(S(=O)(=O)NC23CC(n4cnc5cnc6[nH]ccc6c54)(C2)C3)C1` [Example 4, 3-Cyano-N-(3-(imidazo[4,5-d]pyrrolo[2,3-b]pyridin-1(6H)-yl)bicyclo[1.1.1]pentan-1-yl)azetidine-1-sulfonamide], for which, in series [2], the microsomal CLint at 1 μM was 2.11 µL/min/mg and the half-life at 1 μM is 10.9 h. Besides, in series [3] (setting [10]), the AUC was 402 ng·h/mL, the volume of distribution (Vd) was found to be 0.93 L/kg, the clearance amounted to 41.9 mL/min/kg and the half-life is 0.26 h. Also, the “Pharmacokinetic profile in rats” value in series [3] is “good Pharmacokinetic profile”. In series [4], this compound came in with a concentration for half-maximal inhibition (IC50) of 111 nM. In series [5], this compound registered an IC50 of 3.2 nM. The IC50 in series [6] was found to be 83.2 nM.
For `O=C(CC1CC1)NC12CC(n3cnc4cnc5[nH]ccc5c43)(C1)C2` [Example 13, 2-Cyclopropyl-N-(3-(imidazo[4,5-d]pyrrolo[2,3-b]pyridin-1(6H)-yl)bicyclo[1.1.1]pentan-1-yl)acetamide], the GI50 in series [1] came out at 108 nM; in series [7] it was 50.1 nM. Moreover, the microsomal CLint at 1 μM in series [2] amounted to 1.01 µL/min/mg. Moreover, the half-life at 1 μM in series [2] came to 23 h. The IC50 worked out at 400 nM in series [4], 14.8 nM in series [5] and 122 nM in series [6].
In the case of `O=C(NC12CC(n3cnc4cnc5[nH]ccc5c43)(C1)C2)C1CC(F)(F)C1` [Example 17, 3,3-Difluoro-N-(3-(imidazo[4,5-d]pyrrolo[2,3-b]pyridin-1(6H)-yl)bicyclo[1.1.1]pentan-1-yl)cyclobutanecarboxamide], the GI50 in series [1] was determined as 86.7 nM; in series [7], 48.2 nM. Besides, in series [2], the microsomal CLint at 1 μM amounted to 1.04 µL/min/mg. Further, the half-life at 1 μM in series [2] turned out to be 22.3 h. Besides, the half-inhibitory concentration (IC50) worked out at 8.4 nM in series [5] and 89.5 nM in series [6].
For the compound `O=S(=O)(NC12CC(n3cnc4cnc5[nH]ccc5c43)(C1)C2)N1CC(F)C1` [Example 22, 3-Fluoro-N-(3-(imidazo[4,5-d]pyrrolo[2,3-b]pyridin-1(6H)-yl)bicyclo[1.1.1]pentan-1-yl)azetidine-1-sulfonamide], the GI50 was found to be 163 nM in series [1] and 54 nM in series [7]. The microsomal CLint at 1 μM in series [2] stood at 1.24 µL/min/mg. For the same compound, in series [2], the half-life at 1 μM was 18.6 h. Besides, the figures for the IC50 in series [4], in series [5] and in series [6] were 28.4 nM, 6.1 nM and 45.5 nM, respectively.
Take `O=S(=O)(CCC(F)(F)F)NC12CC(n3cnc4cnc5[nH]ccc5c43)(C1)C2` [Example 32, 3,3,3-Trifluoro-N-(3-(imidazo[4,5-d]pyrrolo[2,3-b]pyridin-1(6H)-yl)bicyclo[1.1.1]pentan-1-yl)propane-1-sulfonamide]: the GI50 in series [1] amounted to 122 nM; in series [7] it was 33.6 nM. The microsomal CLint at 1 μM in series [2] was determined as 2.72 µL/min/mg. In addition, the half-life at 1 μM in series [2] amounted to 8.5 h. Moreover, the IC50 in series [4] was determined as 151 nM; in series [5], 6.7 nM; in series [6], 155 nM.
